As usually defined, the Km is the substrate concentration at which the rate is half of its maximum. Broadly, the kcat is the number of substrate molecules converted per active site and unit of time at saturation.

This is an account of results in PMC7337102 (ACS infectious diseases, 2019).

Some targets named below: Eis_M65A (Mycobacterium tuberculosis, UniProt P9WFK7, M65A); Eis_L63A (Mycobacterium tuberculosis, UniProt P9WFK7, L63A); Eis_S83G (Mycobacterium tuberculosis, UniProt P9WFK7, S83G); Eis_R37A (Mycobacterium tuberculosis, UniProt P9WFK7, R37A); Eis_R37G (Mycobacterium tuberculosis, UniProt P9WFK7, R37G); Eis_W36A (Mycobacterium tuberculosis, UniProt P9WFK7, W36A); Eis_F84A (Mycobacterium tuberculosis, UniProt P9WFK7, F84A); Eis_W36R (Mycobacterium tuberculosis, UniProt P9WFK7, W36R); Eis_D26A (Mycobacterium tuberculosis, UniProt P9WFK7, D26A).

Common to all, as to assay type: biochemical

Regarding `NC[C@H]1O[C@H](O[C@H]2[C@H](O)[C@@H](O[C@H]3O[C@H](CO)[C@@H](O)[C@H](N)[C@H]3O)[C@H](N)C[C@@H]2N)[C@H](O)[C@@H](O)[C@@H]1O` [KAN, kanamycin], the Michaelis-Menten constant (Km) on Eis_M65A was 247 ± 19 µM; at Eis_L63A, 484 ± 93 µM; at Eis_S83G, 432 ± 48 µM; on Eis_R37A, 971 ± 166 µM; on Eis_R37G, 696 ± 44 µM; on Eis_W36A, 556 ± 148 µM. Besides, the Km on Eis_F84A amounted to 569 ± 94 µM; at Eis_W36R, 352 ± 77 µM; at Eis_D26A, 1280 ± 360 µM. The “increase in the catalytic efficiency from that of the wild-type enzyme” value at Eis_M65A was 4.6 fold. Besides, the kcat was 0.495 ± 0.015 s⁻¹ at Eis_M65A; 0.323 ± 0.025 s⁻¹ on Eis_L63A; 0.365 ± 0.013 s⁻¹ on Eis_S83G; 0.158 ± 0.005 s⁻¹ at Eis_R37A; 0.215 ± 0.0017 s⁻¹ at Eis_R37G; 0.138 ± 0.0167 s⁻¹ on Eis_W36A. Moreover, the turnover number (kcat) on Eis_F84A amounted to 0.142 ± 0.012 s⁻¹; on Eis_W36R it was 0.0733 ± 0.0067 s⁻¹; on Eis_D26A, 0.235 ± 0.0417 s⁻¹. Besides, on Eis_M65A, the “maximum turnover rate, fold higher” value worked out at 2 fold. In addition, the “increase in the catalytic efficiency of the enzyme” value on Eis_S83G is given as 2 fold. For the same molecule, on Eis_W36R, the “decrease in the maximum turnover rate” value was 3.3 fold. Also, on Eis_W36R, the “increase of the binding affinity to KAN” value stood at 1.6 fold. Moreover, at Eis_D26A, the “increase in the Km value of KAN from that for the wild-type enzyme” value is 2.3 fold.
